Measured values reported in US10477864B2, “Microbiocidal quinoline (thio)carboxamide derivatives” (priority 2016, dated 2019).

Legend:
[1] = test system: Fusarium culmorum; assay: microbe, parasite or virus in culture; assay type: cell-based; conditions: read-out: control of Fusarium culmorum
[2] = test system: Botryotinia fuckeliana (Botrytis cinerea); assay: Botryotinia fuckeliana (Botrytis cinerea) / liquid culture (gray mould); assay type: cell-based; conditions: 72 h, read-out: control of Botryotinia fuckeliana
[3] = test system: Fusarium culmorum; assay: whole plant or invertebrate; assay type: in vivo; conditions: in Triticum aestivum, read-out: control of Fusarium culmorum
[4] = test system: Glomerella lagenarium (Colletotrichum lagenarium); assay: Glomerella lagenarium (Colletotrichum lagenarium) / liquid culture (anthracnose); assay type: cell-based; conditions: Colletotrichum orbiculare; read-out: control of Glomerella lagenarium

| SMILES | inhibition of growth at 200 ppm [1] | inhibition of growth at 200 ppm [2] | pest or weed control at 200 ppm [3] | inhibition of growth at 200 ppm [4] |
| --- | --- | --- | --- | --- |
| CC(C)(Cc1ccccc1)NC(=O)c1cnc2c(F)cccc2c1 [Compound E-11, N-(1,1-dimethyl-2-phenyl-ethyl)-8-fluoro-quinoline-3-carboxamide] | ≥ 80% | ≥ 80% | ≥ 80% |  |
| CC(C)CC(C)(Cc1ccccc1)NC(=O)c1cc2ccccc2[n+]([O-])c1 (centres unmarked) [Compound E-41, N-(1-benzyl-1,3-dimethyl-butyl)-1-oxido-quinolin-1-ium-3-carboxamide] | ≥ 80% | ≥ 80% |  |  |
| Cc1ccc2ncc(C(=O)NC(C)(Cc3ccccc3)CC(C)C)cc2c1 (centres unmarked) [Compound E-71, N-(1-benzyl-1,3-dimethyl-butyl)-6-methyl-quinoline-3-carboxamide] | ≥ 80% | ≥ 80% | ≥ 80% |  |
| Cc1ccc2cc(C(=O)NC(C)(Cc3ccccc3)CC(C)C)cnc2c1 (centres unmarked) [Compound E-72, N-(1-benzyl-1,3-dimethyl-butyl)-7-methyl-quinoline-3-carboxamide] | ≥ 80% | ≥ 80% | ≥ 80% |  |
| CC(C)CC(C)(Cc1ccccc1)NC(=O)c1cnc2ccc(F)cc2c1 (centres unmarked) [Compound E-73, N-(1-benzyl-1,3-dimethyl-butyl)-6-fluoro-quinoline-3-carboxamide] | ≥ 80% | ≥ 80% |  |  |
| CC(C)CC(C)(Cc1ccccc1)NC(=O)c1cnc2cccc(F)c2c1 (centres unmarked) [Compound E-74, N-(1-benzyl-1,3-dimethyl-butyl)-5-fluoro-quinoline-3-carboxamide] | ≥ 80% | ≥ 80% | ≥ 80% |  |
| COc1cccc2ncc(C(=O)NC(C)(Cc3ccccc3)CC(C)C)cc12 (centres unmarked) [Compound E-75, N-(1-benzyl-1,3-dimethyl-butyl)-5-methoxy-quinoline-3-carboxamide] | ≥ 80% | ≥ 80% | ≥ 80% |  |
| CC(C)CC(C)(Cc1ccccc1)NC(=O)c1cnc2ccc(O)cc2c1 (centres unmarked) [Compound E-76, N-(1-benzyl-1,3-dimethyl-butyl)-6-hydroxy-quinoline-3-carboxamide] | ≥ 80% | ≥ 80% | ≥ 80% |  |
| Cc1ccc2ncc(C(=O)NC(C)(Cc3ccccc3)CC(F)(F)F)cc2c1 (centres unmarked) [Compound E-77, N-(1-benzyl-3,3,3-trifluoro-1-methyl-propyl)-6-methyl-quinoline-3-carboxamide] | ≥ 80% | ≥ 80% | ≥ 80% |  |
| CC(Cc1ccccc1)(CC(F)(F)F)NC(=O)c1cnc2ccc(Cl)cc2c1 (centres unmarked) [Compound E-78, N-(1-benzyl-3,3,3-trifluoro-1-methyl-propyl)-6-chloro-quinoline-3-carboxamide] | ≥ 80% |  |  |  |
| Cc1ccc2cc(C(=O)NC(C)(Cc3ccccc3)CC(F)(F)F)cnc2c1 (centres unmarked) [Compound E-79, N-(1-benzyl-3,3,3-trifluoro-1-methyl-propyl)-7-methyl-quinoline-3-carboxamide] | ≥ 80% | ≥ 80% | ≥ 80% | ≥ 80% |
| CC(Cc1ccccc1)(CC(F)(F)F)NC(=O)c1cnc2cccc(F)c2c1 (centres unmarked) [Compound E-80, N-(1-benzyl-3,3,3-trifluoro-1-methyl-propyl)-5-fluoro-quinoline-3-carboxamide] | ≥ 80% | ≥ 80% | ≥ 80% |  |
| COc1cccc2ncc(C(=O)NC(C)(Cc3ccccc3)CC(F)(F)F)cc12 (centres unmarked) [Compound E-81, N-(1-benzyl-3,3,3-trifluoro-1-methyl-propyl)-5-methoxy-quinoline-3-carboxamide] | ≥ 80% | ≥ 80% | ≥ 80% |  |
| CC(Cc1ccccc1)(CC(F)(F)F)NC(=O)c1cnc2ccc(O)cc2c1 (centres unmarked) [Compound E-82, N-(1-benzyl-3,3,3-trifluoro-1-methyl-propyl)-6-hydroxy-quinoline-3-carboxamide] | ≥ 80% | ≥ 80% | ≥ 80% |  |
| CC(Cc1ccccc1)(CC(F)(F)F)NC(=O)c1cnc2ccc(F)cc2c1 (centres unmarked) [Compound E-84, N-(1-benzyl-3,3,3-trifluoro-1-methyl-propyl)-6-fluoro-quinoline-3-carboxamide] | ≥ 80% | ≥ 80% | ≥ 80% |  |
| Cc1nc2c(F)cccc2cc1C(=O)NC(C)(Cc1ccccc1)CC(F)(F)F (centres unmarked) [Compound E-89, N-(1-benzyl-3,3,3-trifluoro-1-methyl-propyl)-8-fluoro-2-methyl-quinoline-3-carboxamide] | ≥ 80% | ≥ 80% | ≥ 80% | ≥ 80% |
| CCCC(Cc1ccccc1)(NC(=O)c1cnc2c(F)cccc2c1)C(F)(F)F (centres unmarked) [Compound E-91, N-[1-benzyl-1-(trifluoromethyl)butyl]-8-fluoro-quinoline-3-carboxamide] | ≥ 80% | ≥ 80% | ≥ 80% | ≥ 80% |
| CC(Cc1ccccc1)(CC(F)F)NC(=O)c1cnc2c(F)cccc2c1 (centres unmarked) [Compound E-95, N-(1-benzyl-3,3-difluoro-1-methyl-propyl)-8-fluoro-quinoline-3-carboxamide] | ≥ 80% | ≥ 80% | ≥ 80% | ≥ 80% |
| Cc1c(C(=O)NC(C)(Cc2ccccc2)CC(C)C)cnc2c(C#N)cccc12 (centres unmarked) [Compound E-109, N-(1-benzyl-1,3-dimethyl-butyl)-8-cyano-4-methyl-quinoline-3-carboxamide] | ≥ 80% | ≥ 80% | ≥ 80% |  |
| CC(CCO)(Cc1ccccc1)NC(=O)c1cnc2c(F)cccc2c1 (centres unmarked) [Compound E-119, N-(1-benzyl-3-hydroxy-1-methyl-propyl)-8-fluoro-quinoline-3-carboxamide] | ≥ 80% | ≥ 80% |  |  |
| CC(C=O)(Cc1ccccc1)NC(=O)c1cnc2c(F)cccc2c1 (centres unmarked) [Compound E-120, N-(1-benzyl-1-methyl-2-oxo-ethyl)-8-fluoro-quinoline-3-carboxamide] | ≥ 80% |  |  |  |
| C=C(C)CC(C)(Cc1ccccc1)NC(=O)c1cc2cccc(F)c2nc1C (centres unmarked) [Compound E-124, N-(1-benzyl-1,3-dimethyl-but-3-enyl)-8-fluoro-2-methyl-quinoline-3-carboxamide] | ≥ 80% | ≥ 80% |  |  |
| CC(C)C[C@@](C)(Cc1ccccc1)NC(=O)c1cnc2c(F)c(F)ccc2c1 [Compound F-22, N-[(1S)-1-benzyl-1,3-dimethyl-butyl]-7,8-difluoro-quinoline-3-carboxamide] | ≥ 80% | ≥ 80% |  | ≥ 80% |
| Cc1nc2c(F)cccc2cc1C(=O)N[C@](C)(Cc1ccccc1)CC(F)(F)F [Compound F-34, N-[(1R)-1-benzyl-3,3,3-trifluoro-1-methyl-propyl]-8-fluoro-2-methyl-quinoline-3-carboxamide] | ≥ 80% | ≥ 80% |  | ≥ 80% |
